# Several values for one entry are separate records, joined by “and”; a condition that tells them apart may be missing. Equal values may be shown once. Activity calls are given as the source filed them. The rule behind the calls is not given here.
# Tested on: not listed separately
# Experiment: M tuberculosis starvation survival, cfu enumeration, confirmatory dry powder inhibitor dose response, ic90 (AID 651857)
# Details: M. tuberculosis starvation survival, CFU enumeration
row,SMILES,outcome
1,O=S(=O)(Cc1cn(Cc2ccccc2)nn1)c1nnc(-c2ccc(Cl)cc2)o1,inactive

# Tested on: M. tuberculosis starvation survival, CFU enumeration
# Experiment: as above
# Details: not given
row,SMILES,IC90
1,COc1ccc(CSc2nnc(-c3ccc(Cl)cc3)o2)nc1,< 8 µM
2,c1ccc(-c2nnc(SCCC3OCCCO3)o2)cc1,10 µM
3,Fc1ccc(Cn2cc(CSc3nnc(-c4ccc(Cl)cc4)o3)nn2)cc1,2 µM
4,COCCSc1nnc(-c2ccccc2)o1,4 µM
5,O=S(Cc1cn(Cc2ccc(F)cc2)nn1)c1nnc(-c2ccc(Cl)cc2)o1 (stereo unspecified),2 µM
6,COc1ccc(CSc2nnc(-c3ccccc3)o2)cc1,> 62 µM (inactive)
7,Fc1cccc(-c2nnc(SCc3ccccn3)o2)c1,< 8 µM
8,Clc1ccc(-c2nnc(SCc3cn(-c4ccccc4)nn3)o2)cc1,2 µM
9,Brc1ccc(-c2nnc(SCc3ccccn3)o2)cc1,< 8 µM
10,c1ccc(Cn2cc(CSc3nnc(C4CCCC4)o3)nn2)cc1,31 µM
11,FC(F)(F)Oc1ccc(CSc2nnc(-c3ccccc3)o2)cc1,> 62 µM (inactive)
12,O=S(Cc1ccccc1)c1nnc(-c2ccccc2)o1 (stereo unspecified),< 8 µM and 2 µM
13,c1ccc(Cn2cc(CSc3nnc(C4CCC4)o3)nn2)cc1,8 µM
14,Fc1ccc(-c2nnc(SCc3cn(Cc4ccccc4)nn3)o2)cc1,2 µM
15,Fc1ccc(CSc2nnc(-c3ccccc3)o2)cc1,62 µM
16,FC(F)(F)c1ccccc1CSc1nnc(-c2ccccc2)o1,> 62 µM (inactive)
17,Cc1ccc(-c2nnc(SCc3ccccc3)o2)cc1,> 62 µM (inactive)
18,Fc1ccc(-c2nnc(SCc3cn(-c4ccccc4)nn3)o2)cc1,2 µM
19,Fc1ccc(Cn2cc(CSc3nnc(C4CCCC4)o3)nn2)cc1,8 µM
20,c1ccc(CSc2nnc(-c3cccnc3)o2)cc1,62 µM
21,Fc1ccc(Cn2cc(CSc3nnc(-c4ccc(F)cc4)o3)nn2)cc1,2 µM
22,c1ccc(Cn2cc(CSc3nnc(-c4ccccc4)o3)nn2)cc1,4 µM
23,COc1cccc(CSc2nnc(-c3ccccc3)o2)c1,16 µM
24,c1ccc(CCc2nnc(-c3ccccc3)o2)cc1,> 62 µM (inactive)
25,c1ccc(-c2nnc(SCc3cscn3)o2)cc1,62 µM
26,c1ccc(CSc2nnc(C3CCCC3)o2)cc1,31 µM
27,[N-]=[N+]=NCCOCCNC(=O)CCCOc1ccc(CS(=O)c2nnc(-c3ccc(Cl)cc3)o2)nc1 (stereo unspecified),< 8 µM
28,c1ccc(-n2cc(CSc3nnc(C4CCCC4)o3)nn2)cc1,4 µM

row,SMILES,IC90
1,Fc1cccc(-c2nnc(SCc3ccccc3)o2)c1,62 µM
2,c1ccc(-c2nnc(SCc3ccccn3)o2)cc1,4 µM
3,O=S(Cc1cn(Cc2ccccc2)nn1)c1nnc(-c2ccc(Cl)cc2)o1 (stereo unspecified),< 31 µM and 8 µM
4,c1ccc(COc2nnc(-c3ccccc3)o2)cc1,> 62 µM (inactive)
5,Brc1cccc(-c2nnc(SCc3ccccn3)o2)c1,< 8 µM
6,FC1(F)CCN(CCSc2nnc(-c3ccccc3)o2)CC1,> 62 µM (inactive)
7,COc1cccc(-c2nnc(SCc3ccccn3)o2)c1,< 8 µM
8,c1ccc(-c2nnc(SC3CCCCC3)o2)cc1,31 µM
9,Fc1cccc(CSc2nnc(-c3ccccc3)o2)c1,31 µM
10,c1ccc(CSc2nnc(-c3ccccc3)o2)cc1,8 µM
11,CC(C)c1nnc(SCc2ccccc2)o1,125 µM
12,CN(Cc1ccccc1)c1nnc(-c2ccccc2)o1,> 62 µM (inactive)
13,N#Cc1ccccc1CSc1nnc(-c2ccccc2)o1,> 62 µM (inactive)
14,Clc1ccc(CSc2nnc(-c3ccccc3)o2)cc1,8 µM
15,O=S(=O)(Cc1ccccc1)c1nnc(-c2ccccc2)o1,< 62 µM and 8 µM
16,[N-]=[N+]=NCCOCCNC(=O)CCCOc1ccc(CSc2nnc(-c3ccc(Cl)cc3)o2)nc1,< 8 µM
17,FC1(F)CN(CCSc2nnc(-c3ccccc3)o2)C1,> 62 µM (inactive)
18,Fc1ccc(-c2nnc(SCc3ccccc3)o2)cc1,31 µM
19,c1ccc(CSc2nnc(-c3cnco3)o2)cc1,16 µM
20,c1ccc(-c2nnc(SCCN3CCN(c4ccccc4)CC3)o2)cc1,16 µM
21,c1ccc(-n2cc(CSc3nnc(C4CCC4)o3)nn2)cc1,2 µM
22,[O-][n+]1ccccc1CSc1nnc(-c2ccccc2)o1,> 62 µM (inactive)
23,Fc1ccc(-c2nnc(SCc3ccccn3)o2)cc1,< 8 µM
24,Clc1ccc(-c2nnc(SCc3cn(Cc4ccccc4)nn3)o2)cc1,2 µM and < 8 µM
25,Fc1ccc(Cn2cc(CSc3nnc(C4CCC4)o3)nn2)cc1,8 µM
26,c1ccc(CSc2nnc(-c3ccccn3)o2)cc1,31 µM
27,c1ccc(CSc2nnc(-c3cccs3)o2)cc1,> 62 µM (inactive)

# — PubChem BioAssay AID651857 (Broad Institute, 2012)
